The molecules below were run against T1, human PAH with the R408W mutation (Homo sapiens, UniProt P00439, R408W) (assay: Cell Based Phenylalanine Flux Assay). Conditions: A375 cells expressing human R408W PAH; 24 hrs with compound, then sepiapterin and 13C9,15N-Phenylalanine for 4 hours; 13C-Tyrosine by LC-MS; average where tested multiple times; read-out: AC50.
T1 construct: expressed in transfected cells
T1 sequence (P00439 1-452 R408W): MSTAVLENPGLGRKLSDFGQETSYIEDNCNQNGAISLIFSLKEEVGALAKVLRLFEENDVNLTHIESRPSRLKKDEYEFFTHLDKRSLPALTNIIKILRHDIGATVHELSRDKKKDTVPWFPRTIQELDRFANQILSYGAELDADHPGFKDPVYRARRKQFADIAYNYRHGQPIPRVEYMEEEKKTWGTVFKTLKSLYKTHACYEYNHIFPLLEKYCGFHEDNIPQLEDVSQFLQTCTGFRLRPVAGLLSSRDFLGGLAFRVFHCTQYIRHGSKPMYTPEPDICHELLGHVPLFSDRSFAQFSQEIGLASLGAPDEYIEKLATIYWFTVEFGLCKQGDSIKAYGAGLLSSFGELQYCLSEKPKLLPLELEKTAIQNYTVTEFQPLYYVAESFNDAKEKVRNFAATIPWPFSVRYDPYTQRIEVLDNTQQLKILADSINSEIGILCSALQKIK
For `CC(C)c1cccn2nc([C@@H]3c4nc[nH]c4CCN3c3nnc(C4(C)CC4)o3)cc12` [Example 2229, (S)-2-(4-(4-isopropylpyrazolo [1,5-a]pyridin-2-yl)-1,4,6,7-tetrahydro-5H-imidazo [4,5-c]pyridin-5-yl)-5-(1-methylcyclopropyl)-1,3,4-oxadiazole], the AC50 was less than 0.5 µM. `CC(C)c1cccn2nc([C@H]3c4nc[nH]c4CCN3c3nnc(C(C)(F)F)o3)cc12` [Example 2230, (R)-2-(1,1-difluoroethyl)-5-(4-(4-isopropylpyrazolo[1,5-a]pyridin-2-yl)-1,4,6,7-tetrahydro-5H-imidazo[4,5-c]pyridin-5-yl)-1,3,4-oxadiazole] was tested, and the AC50 was greater than 5 µM. With `CC(F)(F)c1nnc(N2CCc3[nH]cnc3[C@@H]2c2cc3c(Cl)cccn3n2)o1` [Example 2232, (R)-2-(4-(4-chloropyrazolo [1,5-a]pyridin-2-yl)-1,4,6,7-tetrahydro-5H-imidazo [4,5-c]pyridin-5-yl)-5-(1,1-difluoroethyl)-1,3,4-oxadiazole] the AC50 was greater than 5 µM. With `CC(F)(F)c1nnc(N2CCc3[nH]cnc3[C@H]2c2cc3c(Cl)cccn3n2)o1` [Example 2233, (S)-2-(4-(4-chloropyrazolo [1,5-a]pyridin-2-yl)-1,4,6,7-tetrahydro-5H-imidazo [4,5-c]pyridin-5-yl)-5-(1,1-difluoroethyl)-1,3,4-oxadiazole] the AC50 was less than 0.5 µM. For `Cc1ncccc1-c1nnc(N2CCc3[nH]cnc3[C@@H]2c2cc3c(Cl)cccn3n2)o1` [Example 2237, (R)-2-(4-(4-chloropyrazolo [1,5-a]pyridin-2-yl)-1,4,6,7-tetrahydro-5H-imidazo [4,5-c]pyridin-5-yl)-5-(2-methylpyridin-3-yl)-1,3,4-oxadiazole], the AC50 was greater than 5 µM. `O=C(c1cnc(-c2cnccn2)o1)N1CCc2[nH]cnc2[C@H]1c1cc2c(C(F)F)cccn2n1` [Example 2242, (S)-(4-(4-(difluoromethyl)pyrazolo[1,5-a]pyridin-2-yl)-1,4,6,7-tetrahydro-5H-imidazo [4,5-c]pyridin-5-yl)(2-(pyrazin-2-yl)oxazol-5-yl) methanone] gave an AC50 of 0.5 to 1 µM. `O=C(c1cnc(-c2cnccn2)o1)N1CCc2[nH]cnc2[C@@H]1c1cc2c(C(F)F)cccn2n1` [Example 2243] showed an AC50 greater than 5 µM. For `FC(F)c1nnc(N2CCc3[nH]cnc3[C@H]2c2cc3c(OC(F)(F)F)cccn3n2)o1` [Example 2251, (S)-2-(difluoromethyl)-5-(4-(4-(trifluoromethoxy)pyrazolo [1,5-a]pyridin-2-yl)-1,4,6,7-tetrahydro-5H-imidazo [4,5-c]pyridin-5-yl)-1,3,4-oxadiazole], the AC50 was less than 0.5 µM. Work on `FC(F)(F)Oc1cccn2nc([C@H]3c4nc[nH]c4CCN3c3nnc(C(F)(F)F)o3)cc12` [Example 2252, (R)-2-(4-(4-(trifluoromethoxy)pyrazolo[1,5-a]pyridin-2-yl)-1,4,6,7-tetrahydro-5H-imidazo[4,5-c]pyridin-5-yl)-5-(trifluoromethyl)-1,3,4-oxadiazole] yielded an AC50 of 0.5 to 1 µM. Work on `CC1(c2nnc(N3CCc4[nH]cnc4[C@@H]3c3cc4c(Cl)cccn4n3)o2)CC1` [Example 2258, (R)-2-(4-(4-chloropyrazolo [1,5-a]pyridin-2-yl)-1,4,6,7-tetrahydro-5H-imidazo [4,5-c]pyridin-5-yl)-5-(1-methylcyclopropyl)-1,3,4-oxadiazole] yielded an AC50 greater than 5 µM. In the case of `CC(C)c1cccn2nc([C@@H]3c4nc[nH]c4CCN3c3nnc(-c4cccnc4)o3)cc12` [Example 2261, (S)-2-(4-(4-isopropylpyrazolo [1,5-a]pyridin-2-yl)-1,4,6,7-tetrahydro-5H-imidazo [4,5-c]pyridin-5-yl)-5-(pyridin-3-yl)-1,3,4-oxadiazole], the AC50 was 0.5 to 1 µM. With `Clc1cccn2nc([C@@H]3c4nc[nH]c4CCN3c3nnc(-c4cccnc4)o3)cc12` [Example 2262, (S)-2-(4-(4-chloropyrazolo [1,5-a]pyridin-2-yl)-1,4,6,7-tetrahydro-5H-imidazo[4,5-c]pyridin-5-yl)-5-(pyridin-3-yl)-1,3,4-oxadiazole] the AC50 was 0.5 to 1 µM. In the case of `Clc1cccn2nc([C@H]3c4nc[nH]c4CCN3c3nnc(-c4cccnc4)o3)cc12` [Example 2263, (R)-2-(4-(4-chloropyrazolo [1,5-a]pyridin-2-yl)-1,4,6,7-tetrahydro-5H-imidazo[4,5-c]pyridin-5-yl)-5-(pyridin-3-yl)-1,3,4-oxadiazole], the AC50 was greater than 5 µM. Molecule `Cc1cccn2nc([C@@H]3c4nc[nH]c4CCN3c3nnc(-c4cccnc4F)o3)cc12` [Example 2264, (S)-2-(2-fluoropyridin-3-yl)-5-(4-(4-methylpyrazolo[1,5-a]pyridin-2-yl)-1,4,6,7-tetrahydro-5H-imidazo[4,5-c]pyridin-5-yl)-1,3,4-oxadiazole] has an AC50 of 0.5 to 1 µM. With `Cc1cccn2nc([C@H]3c4nc[nH]c4CCN3c3nnc(-c4cccnc4F)o3)cc12` [Example 2265, (R)-2-(2-fluoropyridin-3-yl)-5-(4-(4-methylpyrazolo[1,5-a]pyridin-2-yl)-1,4,6,7-tetrahydro-5H-imidazo[4,5-c]pyridin-5-yl)-1,3,4-oxadiazole] the AC50 was greater than 5 µM. `FC(F)Oc1cccn2nc([C@@H]3c4nc[nH]c4CCN3c3ccc(C(F)(F)F)cn3)cc12` [Example 2272, (S)-4-(4-(difluoromethoxy)pyrazolo[1,5-a]pyridin-2-yl)-5-(5-(trifluoromethyl)pyridin-2-yl)-4,5,6,7-tetrahydro-1H-imidazo[4,5-c]pyridine] was tested, and the AC50 was less than 0.5 µM. `Cc1cccnc1-c1nnc(N2CCc3[nH]cnc3[C@H]2c2cc3c(C(F)F)cccn3n2)o1` [Example 2279, (S)-2-(4-(4-(difluoromethyl)pyrazolo[1,5-a]pyridin-2-yl)-1,4,6,7-tetrahydro-5H-imidazo [4,5-c]pyridin-5-yl)-5-(3-methylpyridin-2-yl)-1,3,4-oxadiazole] was tested, and the AC50 was less than 0.5 µM. Molecule `Cc1cccnc1-c1nnc(N2CCc3[nH]cnc3[C@@H]2c2cc3c(F)cccn3n2)o1` [Example 2281, (R)-2-(4-(4-fluoropyrazolo [1,5-a]pyridin-2-yl)-1,4,6,7-tetrahydro-5H-imidazo [4,5-c]pyridin-5-yl)-5-(3-methylpyridin-2-yl)-1,3,4-oxadiazole] has an AC50 greater than 5 µM. Molecule `Cc1cccnc1-c1nnc(N2CCc3[nH]cnc3[C@H]2c2cc3c(Cl)cccn3n2)o1` [Example 2287] has an AC50 of less than 0.5 µM. `Cc1cc(-c2nnc(C(=O)N3CCc4[nH]cnc4[C@H]3c3cc4c(F)cccn4n3)o2)n[nH]1` [Example 2295, (S)-(4-(4-fluoropyrazolo [1,5-a]pyridin-2-yl)-1,4,6,7-tetrahydro-5H-imidazo[4,5-c]pyridin-5-yl)(5-(5-methyl-1H-pyrazol-3-yl)-1,3,4-oxadiazol-2-yl)methanone] gave an AC50 of 0.5 to 1 µM. `Cc1c[nH]nc1-c1nnc(C(=O)N2CCc3[nH]cnc3[C@H]2c2cc3c(F)cccn3n2)o1` [Example 2296, (S)-(4-(4-fluoropyrazolo [1,5-a]pyridin-2-yl)-1,4,6,7-tetrahydro-5H-imidazo[4,5-c]pyridin-5-yl)(5-(4-methyl-1H-pyrazol-3-yl)-1,3,4-oxadiazol-2-yl)methanone] showed an AC50 of less than 0.5 µM. For `Cc1c[nH]nc1-c1nnc(C(=O)N2CCc3[nH]cnc3[C@@H]2c2cc3c(F)cccn3n2)o1` [Example 2297, (R)-(4-(4-fluoropyrazolo [1,5-a]pyridin-2-yl)-1,4,6,7-tetrahydro-5H-imidazo[4,5-c]pyridin-5-yl)(5-(4-methyl-1H-pyrazol-3-yl)-1,3,4-oxadiazol-2-yl)methanone], the AC50 was greater than 5 µM. In the case of `Cc1cccnc1-c1nnc(N2CCc3[nH]cnc3[C@@H]2c2cc3cccc(Cl)n3n2)o1` [Example 2306, (R)-2-(4-(7-chloropyrazolo [1,5-a]pyridin-2-yl)-1,4,6,7-tetrahydro-5H-imidazo [4,5-c]pyridin-5-yl)-5-(3-methylpyridin-2-yl)-1,3,4-oxadiazole], the AC50 was greater than 5 µM. Work on `Cc1cccnc1-c1nnc(N2CCc3[nH]cnc3[C@H]2c2cc3cccc(Cl)n3n2)o1` [Example 2307, (S)-2-(4-(7-chloropyrazolo [1,5-a]pyridin-2-yl)-1,4,6,7-tetrahydro-5H-imidazo [4,5-c]pyridin-5-yl)-5-(3-methylpyridin-2-yl)-1,3,4-oxadiazole] yielded an AC50 of less than 0.5 µM. `Cc1cccn2nc([C@H]3c4nc[nH]c4CCN3c3ccccc3)cc12` [Example 2310, (R)-4-(4-methylpyrazolo [1,5-a]pyridin-2-yl)-5-phenyl-4,5,6,7-tetrahydro-1H-imidazo[4,5-c]pyridine] was tested, and the AC50 was 1 to 5 µM. `FC(F)Oc1cccn2nc([C@@H]3c4nc[nH]c4CCN3c3cnccn3)cc12` [Example 2319, (S)-4-(4-(difluoromethoxy)pyrazolo[1,5-a]pyridin-2-yl)-5-(pyrazin-2-yl)-4,5,6,7-tetrahydro-1H-imidazo[4,5-c]pyridine] gave an AC50 of less than 0.5 µM. Molecule `CC(C)c1nnc(N2CCc3[nH]cnc3[C@H]2c2cc3c(C(F)F)cccn3n2)o1` [Example 2321, (S)-2-(4-(4-(difluoromethyl)pyrazolo[1,5-a]pyridin-2-yl)-1,4,6,7-tetrahydro-5H-imidazo [4,5-c]pyridin-5-yl)-5-isopropyl-1,3,4-oxadiazole] has an AC50 of less than 0.5 µM. Work on `Cc1cccc2cc([C@H]3c4nc[nH]c4CCN3c3nnc(C(C)(F)F)o3)nn12` [Example 2328, (R)-2-(1,1-difluoroethyl)-5-(4-(7-methylpyrazolo[1,5-a]pyridin-2-yl)-1,4,6,7-tetrahydro-5H-imidazo[4,5-c]pyridin-5-yl)-1,3,4-oxadiazole] yielded an AC50 greater than 5 µM.

— US12673961B2 (Agios Pharmaceuticals, Inc., priority 2022, dated 2026)
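Note: Ten-point dose curve from 2-fold serial dilutions, run in duplicate at 0.5% DMSO final, tracer step used 20 µM sepiapterin and 800 µM labeled phenylalanine.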
